Laboratory results as given in PubChem BioAssay AID248 (DTP/NCI, 2004).
“And” between values parts separate entries of the source, which are not always exact repeats. Equal entries are not always repeated. Toxic doses and inconclusive results are not listed. Cut-off read from the data, not from the text of the source: active = T/C of 150% or more; inactive = T/C below 125%.

Tested on: L1210 leukemia ip in BDF1 mice, survival T/C
Test: NCI In Vivo Anticancer Drug Screen. Data for tumor model L1210 Leukemia (intraperitoneal) in B6D2F1 (BDF1) mice
Details: endpoint: mean survival time, higher = longer survival
In short: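 Each compound was tested against a transplantable tumor grown in mice. The endpoint was survival, with treated animals benchmarked against vehicle controls as a simple ratio.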

[1] = dose: 100.0 mg/kg/injection, schedule: Q04DX003 (ip), vehicle: saline
[2] = dose: 200.0 mg/kg/injection, schedule: Q04DX003 (ip), vehicle: saline
[3] = dose: 400.0 mg/kg/injection, schedule: Q04DX003 (ip), vehicle: saline
[4] = dose: 100.0 mg/kg/injection, schedule: Q01DX001 (ip), vehicle: carboxymethylcellulose (CMC)
[5] = dose: 200.0 mg/kg/injection, schedule: Q01DX001 (ip), vehicle: carboxymethylcellulose (CMC)
[6] = dose: 400.0 mg/kg/injection, schedule: Q01DX001 (ip), vehicle: carboxymethylcellulose (CMC)
[7] = dose: 100.0 mg/kg/injection, schedule: Q01DX001 (ip), vehicle: Klucel (hydroxypropylcellulose) (HPC)
[8] = dose: 200.0 mg/kg/injection, schedule: Q01DX001 (ip), vehicle: Klucel (hydroxypropylcellulose) (HPC)
[9] = dose: 400.0 mg/kg/injection, schedule: Q01DX001 (ip), vehicle: Klucel (hydroxypropylcellulose) (HPC)
[10] = dose: 100.0 mg/kg/injection, schedule: Q01DX009 (ip), vehicle: saline with Tween-80
[11] = dose: 200.0 mg/kg/injection, schedule: Q01DX009 (ip), vehicle: saline with Tween-80
[12] = dose: 400.0 mg/kg/injection, schedule: Q01DX009 (ip), vehicle: saline with Tween-80
[13] = dose: 100.0 mg/kg/injection, schedule: Q01DX009 (ip), vehicle: other
[14] = dose: 200.0 mg/kg/injection, schedule: Q01DX009 (ip), vehicle: other
[15] = dose: 200.0 mg/kg/injection, schedule: Q01DX009 (ip), vehicle: saline
[16] = dose: 50.0 mg/kg/injection, schedule: Q01DX009 (ip), vehicle: saline with Tween-80
[17] = dose: 100.0 mg/kg/injection, schedule: Q01DX009 (ip), vehicle: saline
[18] = dose: 400.0 mg/kg/injection, schedule: Q01DX009 (ip), vehicle: saline

Measured: T/C

COc1cc2c(cc1OC)C(C=C(c1ccccc1)c1ccccc1)N(C)CC2 (configuration not stated)
inactive: dose: 12.5 mg/kg/injection, schedule: Q01DX009 (ip), vehicle: Klucel (hydroxypropylcellulose) (HPC) 94 % of control | dose: 12.5 mg/kg/injection, schedule: Q04DX003 (ip), vehicle: Klucel (hydroxypropylcellulose) (HPC) 95 % of control | dose: 25.0 mg/kg/injection, schedule: Q01DX009 (ip), vehicle: Klucel (hydroxypropylcellulose) (HPC) 103 % of control | dose: 25.0 mg/kg/injection, schedule: Q04DX003 (ip), vehicle: Klucel (hydroxypropylcellulose) (HPC) 101 % of control | dose: 50.0 mg/kg/injection, schedule: Q01DX009 (ip), vehicle: Klucel (hydroxypropylcellulose) (HPC) 96 % of control | dose: 50.0 mg/kg/injection, schedule: Q04DX003 (ip), vehicle: Klucel (hydroxypropylcellulose) (HPC) 96 % of control

O=C(c1ccccc1)C1(c2ccccc2)SSC1(C(=O)c1ccccc1)c1ccccc1 (configuration not stated)
inactive: [1] 95 % of control | [2] 92 % of control | [3] 97 % of control

CCNC(=O)CC#N
inactive: [4] 102 % of control | [5] 91 % of control | [6] 108 % of control

C1=NCCCN2CCCCC12 (configuration not stated)
inactive: dose: 2.35 mg/kg/injection, schedule: Q01DX009 (ip), vehicle: Klucel (hydroxypropylcellulose) (HPC) 92 % of control | dose: 4.69 mg/kg/injection, schedule: Q01DX009 (ip), vehicle: Klucel (hydroxypropylcellulose) (HPC) 92 % of control | dose: 9.38 mg/kg/injection, schedule: Q01DX009 (ip), vehicle: Klucel (hydroxypropylcellulose) (HPC) 97 % of control | dose: 18.75 mg/kg/injection, schedule: Q01DX009 (ip), vehicle: Klucel (hydroxypropylcellulose) (HPC) 106 % of control

Oc1ccc2ccccc2c1C(c1ccccc1)N1CCCCC1 (configuration not stated)
inactive: [7] 94 % of control | [8] 97 % of control | [9] 103 % of control

COc1cc(/C=N/NC(=O)CNC(=O)c2ccccc2)ccc1O
inactive: [10] 102 % of control | [11] 102 % of control | [12] 101 % of control

CCC/C=C/CC1CC2CC(C1C)C2(C)C (configuration not stated)
inactive: dose: 50.0 mg/kg/injection, schedule: Q01DX009 (ip), vehicle: other 97 % of control | [13] 101 % of control | [14] 90 % of control

CCCCCCCCSC(C)(C)C
inactive: [1] 102 % of control | [2] 101 % of control | [3] 93 % of control

O=C(O)CCCc1cccc2ccccc12
inactive: dose: 37.0 mg/kg/injection, schedule: Q01DX009 (ip), vehicle: gum acacia 97 % of control | dose: 75.0 mg/kg/injection, schedule: Q01DX009 (ip), vehicle: gum acacia 103 % of control | dose: 100.0 mg/kg/injection, schedule: Q04DX003 (ip), vehicle: gum acacia 97 % of control | dose: 150.0 mg/kg/injection, schedule: Q01DX009 (ip), vehicle: gum acacia 92 % of control | dose: 200.0 mg/kg/injection, schedule: Q04DX003 (ip), vehicle: gum acacia 86 % of control

CNc1nc[nH]c(=O)c1NC(=O)c1ccccc1
inactive: dose: 45.0 mg/kg/injection, schedule: Q01DX001 (ip), vehicle: Klucel (hydroxypropylcellulose) (HPC) 103 % of control | dose: 90.0 mg/kg/injection, schedule: Q01DX001 (ip), vehicle: Klucel (hydroxypropylcellulose) (HPC) 95 % of control | dose: 180.0 mg/kg/injection, schedule: Q01DX001 (ip), vehicle: Klucel (hydroxypropylcellulose) (HPC) 92 % of control

O=C(/C=C/C(=O)c1ccccc1)c1ccccc1
inactive: dose: 75.0 mg/kg/injection, schedule: Q04DX003 (ip), vehicle: Klucel (hydroxypropylcellulose) (HPC) 98 % of control | dose: 100.0 mg/kg/injection, schedule: Q04DX002 (ip), vehicle: Klucel (hydroxypropylcellulose) (HPC) 98 % of control | dose: 150.0 mg/kg/injection, schedule: Q04DX003 (ip), vehicle: Klucel (hydroxypropylcellulose) (HPC) 97 % of control | dose: 200.0 mg/kg/injection, schedule: Q04DX002 (ip), vehicle: Klucel (hydroxypropylcellulose) (HPC) 106 % of control | dose: 300.0 mg/kg/injection, schedule: Q04DX003 (ip), vehicle: Klucel (hydroxypropylcellulose) (HPC) 104 % of control

CN(N=O)C(=O)NC1C(CO)OC2OC(C)(C)OC21 (configuration not stated)
inactive: dose: 100.0 mg/kg/injection, schedule: Q01DX009 (ip), vehicle: saline sonified 124 % of control | dose: 400.0 mg/kg/injection, schedule: Q01DX009 (ip), vehicle: saline sonified 119 % of control

CCCCCNC(C)=O
inactive: [15] 108 % of control

O=[N+]([O-])c1ccc(Oc2ccc(S(=O)(=O)F)cc2)cc1
inactive: dose: 100.0 mg/kg/injection, schedule: Q01DX009 (ip), vehicle: Klucel (hydroxypropylcellulose) (HPC) 106 % of control | dose: 200.0 mg/kg/injection, schedule: Q01DX009 (ip), vehicle: Klucel (hydroxypropylcellulose) (HPC) 97 % of control | dose: 400.0 mg/kg/injection, schedule: Q01DX009 (ip), vehicle: Klucel (hydroxypropylcellulose) (HPC) 98 % of control

CCN(CC)C(=O)Cn1cc(F)c(NC(C)=O)nc1=O
inactive: [1] 97 % of control | [2] 101 % of control | [3] 101 % of control

CCOC(=O)C(O)C(C#N)c1ccccc1 (configuration not stated)
inactive: [13] 94 % of control | dose: 100.0 mg/kg/injection, schedule: Q04DX003 (ip), vehicle: other 118 % of control | [14] 106 % of control | dose: 200.0 mg/kg/injection, schedule: Q04DX003 (ip), vehicle: other 101 % of control | dose: 400.0 mg/kg/injection, schedule: Q01DX009 (ip), vehicle: other 95 % of control | dose: 400.0 mg/kg/injection, schedule: Q04DX003 (ip), vehicle: other 105 % of control

NC(=O)c1n[nH]nc1N1CC[N+](CCCl)=N1
inactive: dose: 44.0 mg/kg/injection, schedule: Q01DX009 (ip), vehicle: saline with Tween-80 110 % of control | [16] 111 % of control | dose: 50.0 mg/kg/injection, schedule: Q04DX003 (ip), vehicle: saline with Tween-80 105 % of control | dose: 67.0 mg/kg/injection, schedule: Q01DX009 (ip), vehicle: saline with Tween-80 107 % of control | [17] 96 % of control | dose: 100.0 mg/kg/injection, schedule: Q04DX003 (ip), vehicle: saline with Tween-80 97 % of control and 113 % of control | [1] 107 % of control | dose: 150.0 mg/kg/injection, schedule: Q01DX009 (ip), vehicle: saline with Tween-80 112 % of control | [15] 91 % of control | dose: 200.0 mg/kg/injection, schedule: Q04DX003 (ip), vehicle: saline with Tween-80 118 % of control and 121 % of control | [2] 105 % of control | [18] 95 % of control | dose: 400.0 mg/kg/injection, schedule: Q04DX003 (ip), vehicle: saline with Tween-80 113 % of control | [3] 94 % of control

CC12CCC(=O)OC1(C)OC(=O)CC2 (configuration not stated)
inactive: [17] 94 % of control | [15] 100 % of control | [18] 95 % of control

c1ccc2c(c1)Nc1cc3ccccc3cc1O2
inactive: dose: 50.0 mg/kg/injection, schedule: Q01DX001 (ip), vehicle: carboxymethylcellulose (CMC) 101 % of control | [4] 92 % of control | [5] 97 % of control | [6] 90 % of control

CC(=O)C(c1ccccc1)N(C)C(=O)c1ccccc1 (configuration not stated)
inactive: dose: 100.0 mg/kg/injection, schedule: Q04DX003 (ip), vehicle: acetone 93 % of control | dose: 200.0 mg/kg/injection, schedule: Q04DX003 (ip), vehicle: acetone 86 % of control | dose: 400.0 mg/kg/injection, schedule: Q04DX003 (ip), vehicle: acetone 89 % of control

Nc1ncnc2nc(-c3cc(Cl)c(OCc4ccccc4)c(Cl)c3)[nH]c12
inactive: [7] 100 % of control | [8] 89 % of control | [9] 92 % of control

COC1/C=C\CC2=CCCC=C2CC1 (configuration not stated)
inactive: [16] 112 % of control | [10] 123 % of control | [11] 105 % of control

COc1ccc(OC)c(NC(=O)NNC(=O)CNC(=O)Nc2cccc([N+](=O)[O-])c2)c1
inactive: [10] 89 % of control | [11] 91 % of control | [12] 91 % of control

Oc1ccc(/C=N/Nc2nc3ccccc3s2)c(O)c1
inactive: dose: 222.0 mg/kg/injection, schedule: Q01DX Z (ip), vehicle: methylcellulose (MC) 88 % of control | dose: 333.0 mg/kg/injection, schedule: Q01DX Z (ip), vehicle: methylcellulose (MC) 91 % of control | dose: 500.0 mg/kg/injection, schedule: Q01DX Z (ip), vehicle: methylcellulose (MC) 94 % of control
